Reference: paper PMC7948494, “Structure of an ancestral ADP-dependent kinase with fructose-6P reveals key residues for binding, catalysis, and ligand-induced conformational changes” (The Journal of Biological Chemistry, 2020)
Changes are numbered by the printed parent chain.

Assays:
AncMsPFK [1] = biological target: T1, AncMsPFK (synthetic construct, UniProt Z9Y5W3ZEF0); assay: X-ray crystallography, […] Å; format: binding; conditions: closed conformation
T1 construct: synthetic gene in pET-15, N-terminal polyhistidine tag, E. coli BL21; heat step and Ni-Sepharose; 490 residues expected, one molecule per asymmetric unit
T1 sequence (Z9Y5W3ZEF0 22-511): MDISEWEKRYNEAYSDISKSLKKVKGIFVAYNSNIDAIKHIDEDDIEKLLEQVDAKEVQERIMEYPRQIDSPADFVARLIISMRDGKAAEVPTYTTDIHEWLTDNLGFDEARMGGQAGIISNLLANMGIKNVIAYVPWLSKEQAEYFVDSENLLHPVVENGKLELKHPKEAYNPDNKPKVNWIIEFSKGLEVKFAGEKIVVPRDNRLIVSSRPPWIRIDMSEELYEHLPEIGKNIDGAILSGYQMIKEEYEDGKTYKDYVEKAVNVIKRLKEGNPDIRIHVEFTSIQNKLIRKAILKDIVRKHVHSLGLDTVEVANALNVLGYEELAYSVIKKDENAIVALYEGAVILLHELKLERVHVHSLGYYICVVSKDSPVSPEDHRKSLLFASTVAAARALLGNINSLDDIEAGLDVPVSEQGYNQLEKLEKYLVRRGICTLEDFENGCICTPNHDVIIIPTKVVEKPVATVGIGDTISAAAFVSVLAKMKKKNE

AncMsPFK [2] = biological target: T1, AncMsPFK; assay: coupled NADH oxidation assay, […] nm; format: biochemical; conditions: 1 mM ADP, 2 mM MgCl2, 100 mM Pipes pH 6.5, 25 °C
AncMsPFK [3] = biological target: T2, AncMsPFK (synthetic construct, UniProt Z9Y5W3ZEF0, E111A); assay: coupled NADH oxidation assay, […] nm; format: biochemical; conditions: 1 mM ADP, 2 mM MgCl2, 100 mM Pipes pH 6.5, 25 °C; substrate inhibition fit
T2 construct: synthetic gene in pET-15, N-terminal polyhistidine tag, E. coli BL21; heat step and Ni-Sepharose; 490 residues expected, one molecule per asymmetric unit
T2 sequence (Z9Y5W3ZEF0 22-511 E111A): T1 sequence (Z9Y5W3ZEF0 22-511) with E90A

SMILES | X-ray crystallography, 3.12 Å (AncMsPFK [1]; ternary complex with F6P and Mg2+, nucleotide site) | F6P / KM mM (AncMsPFK [2]) | X-ray crystallography, 3.12 Å (AncMsPFK [1]; ternary complex with Mg-ADPβS, active site) | F6P / KM mM (AncMsPFK [3])
Nc1ncnc2c1ncn2[C@@H]1O[C@H](COP(=O)(O)OP(=O)(O)S)[C@@H](O)[C@H]1O (stereo partly shown) [ADPβS] | The structure of the AncMsPFK in complex with F6P-Mg-ADPβS was solved by molecular replacement | – | – | –
O=P(O)(O)OC[C@H]1OC(O)(CO)[C@@H](O)[C@@H]1O (stereo partly shown) [F6P] | – | 0.014 ± 1.5 × 10^−3 mM | The structure of the AncMsPFK in complex with F6P-Mg-ADPβS was solved by molecular replacement | 0.09 ± 9.6 × 10^−3 mM
